Test results published in ChEMBL document CHEMBL1129106, “The development of non-steroidal dual inhibitors of both human 5-reductase isozymes” (Bioorg Med Chem Lett, 1996).

Tests used:
[1] = molecular target: T1, 3-oxo-5-alpha-steroid 4-dehydrogenase 1 (Homo sapiens) (UniProt P18405); assay: Compound was tested in vitro for its inhibitory activity against human 5Alpha-R1 expressed as potency.
T1 sequence (whole entry): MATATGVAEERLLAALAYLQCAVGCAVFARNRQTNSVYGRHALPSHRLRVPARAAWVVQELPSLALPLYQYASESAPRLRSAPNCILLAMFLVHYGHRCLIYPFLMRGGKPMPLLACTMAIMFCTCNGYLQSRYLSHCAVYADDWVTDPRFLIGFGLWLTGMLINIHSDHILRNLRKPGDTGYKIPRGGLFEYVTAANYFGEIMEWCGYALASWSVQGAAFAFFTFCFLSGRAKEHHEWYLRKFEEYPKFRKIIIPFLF

[2] = molecular target: T2, 3-oxo-5-alpha-steroid 4-dehydrogenase 2 (Homo sapiens) (UniProt P31213); assay: Compound was tested in vitro for its inhibitory activity against human 5Alpha-R2 expressed as potency.
T2 sequence (whole entry): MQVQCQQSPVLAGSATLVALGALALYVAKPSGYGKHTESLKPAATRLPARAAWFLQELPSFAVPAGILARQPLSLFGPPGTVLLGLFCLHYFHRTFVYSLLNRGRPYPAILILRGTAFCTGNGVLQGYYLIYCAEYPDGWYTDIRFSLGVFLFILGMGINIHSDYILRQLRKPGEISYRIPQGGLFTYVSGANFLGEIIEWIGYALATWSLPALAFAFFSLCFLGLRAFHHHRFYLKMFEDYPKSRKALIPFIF

[3] = molecular target: Steroid 5-alpha-reductase (Rattus norvegicus) (UniProt P24008+P31214); assay: Compound was tested in vitro for its inhibitory activity against rat 5Alpha-R expressed as potency; format: protein assay
[4] = Volume of distribution in rat.; format: ADME, organism-based; conditions: in vivo
[5] = Volume of distribution in dog; format: ADME, organism-based, Canis lupus familiaris; conditions: in vivo
[6] = Plasma clearance in rat.; format: ADME, organism-based
[7] = Plasma clearance in dog; format: ADME, organism-based, Canis lupus familiaris
[8] = Oral bioavailability in rat; format: ADME, organism-based; conditions: in vivo
[9] = Oral bioavailability in dog; format: ADME, organism-based, Canis lupus familiaris; conditions: in vivo
[10] = Half-life in rat plasma; format: ADME, organism-based

Sequence of Steroid 5-alpha-reductase (Rattus norvegicus) (P24008 whole entry, looked up): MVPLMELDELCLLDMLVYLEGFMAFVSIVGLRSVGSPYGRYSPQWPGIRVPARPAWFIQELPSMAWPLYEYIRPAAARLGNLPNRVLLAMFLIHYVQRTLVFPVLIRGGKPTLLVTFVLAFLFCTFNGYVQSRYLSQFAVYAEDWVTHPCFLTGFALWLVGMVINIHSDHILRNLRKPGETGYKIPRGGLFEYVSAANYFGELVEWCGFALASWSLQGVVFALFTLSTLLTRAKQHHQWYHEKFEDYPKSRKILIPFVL
Sequence of Steroid 5-alpha-reductase (Rattus norvegicus) (P31214 whole entry, looked up): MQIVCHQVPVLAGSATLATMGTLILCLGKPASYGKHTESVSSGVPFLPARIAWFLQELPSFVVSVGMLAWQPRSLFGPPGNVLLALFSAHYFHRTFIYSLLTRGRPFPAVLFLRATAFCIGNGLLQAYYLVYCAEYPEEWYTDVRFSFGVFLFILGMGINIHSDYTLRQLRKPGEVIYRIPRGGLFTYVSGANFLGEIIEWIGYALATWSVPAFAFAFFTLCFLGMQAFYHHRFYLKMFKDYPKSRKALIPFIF

O=C(O)CCCn1cc(C(=O)c2ccc3c(c2)OC(c2ccccc2)(c2ccccc2)O3)c2ccccc21
Potency [1]: 23 nM | Potency [2]: 34 nM | Potency [3]: 3 nM

CCCc1ccc(OC(C)c2ccc(C(=O)c3cn(CCCC(=O)O)c4ccccc34)cc2)cc1 (stereo unspecified)
Potency [1]: 8 nM | Potency [2]: 10 nM | Potency [3]: 5 nM

CC(C)Cc1ccc([C@@H](C)Oc2ccc(C(=O)c3cn(CCCC(=O)O)c4ccccc34)cc2)cc1
Potency [1]: 574 nM | Potency [2]: 69 nM | Potency [3]: 30 nM

CC(C)Cc1ccc(C(C)Oc2ccc(C(=O)N3CC(CCCC(=O)O)c4ccccc43)cc2)cc1 (stereo unspecified)
Potency [1]: 113 nM | Potency [2]: 481 nM | Potency [3]: 24 nM

Cc1c(O[C@@H](C)c2ccc(CC(C)C)cc2)ccc(C(=O)Nc2ccccc2OCCCC(=O)O)c1C
Potency [2]: 256 nM

CC(C)Cc1ccc([C@]2(C)Oc3ccc(C(=O)c4cn(CCCC(=O)O)c5ccccc45)cc3O2)cc1
Potency [1]: 25 nM | Potency [2]: 23 nM | Potency [3]: 9 nM

CC(C)Cc1ccc([C@H](C)Oc2ccc(C(=O)c3cn(CCCC(=O)O)c4ccccc34)cc2)cc1
Vd [4]: 3.6 L/kg | Vd [5]: 0.9 L/kg | clearance [6]: 11 mL/min/kg | clearance [7]: 2.4 mL/min/kg | Potency [1]: 40 nM | bioavailability [8]: 56% | Potency [2]: 4 nM | Potency [3]: 1 nM | bioavailability [9]: 86% | half-life [10]: 222 min
